Assay [1] concerns macrophage Cx43 hemichannel activities, RAW 264.7 cells. The assay can be described thus: Lucifer Yellow dye uptake, hemichannel permeability, calcium-depleted. Type of assay: cell-based, murine. As to conditions: P5 20 μM, LPS 0.5 μg/ml, 16 h, LY 15 min, P < 0.05 versus +LPS. An excerpt: Because connexon is the structural unit for both hemichannel (1 connexon) and gap junction (2 connexons from opposing cells), which are both permeable to similar molecular weight molecules, such as the Lucifer yellow (LY). Thus, the LY dye uptake could be used to determine the channel permeability of both hemichannel (as indicated by the rate of LY entry into the cells) and gap junction channels (as judged by the distance of intercellular LY diffusion). The LY dye uptake assay relied on the ability of this dye present in the extracellular milieu to cross the plasma membrane and became concentrated inside of the cell, which could be quantified by fluorescence microscopy. To determine the effects of Cx43 mimetic peptides on hemichannel permeability, RAW 264.7 cells were subjected to LPS stimulation (0.5 µg/ml, 16 h) before replacing the medium with fresh DMEM containing various Cx43 mimetic peptides, GAP26 (100 µM), TAT-GAP19 (200 µM) or P5 (20 µM). Following a brief incubation (15 min), EGTA (1 mM) was added to deplete free calcium prior to the addition of LY dye (1%). Fifteen min later, cells were fixed with 2% paraformaldehyde, and the number of LY-positive cells was counted. The ratio of LY-positive cells vs. total cell counts (DAPI staining) was used as the measurement of hemichannel permeability.

Assay [2] concerns LPS-induced production of nitric oxide. The assay can be described thus: Nitric oxide production. To be noted: data not shown. Type of assay: cell-based.
The subject of assay [3] is hepatic I/R injury, C57BL/6 mice. The assay can be described thus: Hepatic ischemia/reperfusion injury. Type of assay: in vivo, Male C57BL/6 mice. To be noted: P5 10.0 mg/kg i.v. at onset of reperfusion; 60 min ischemia; 24 h after onset of ischemia; P < 0.05 versus saline (I/R). As to the method:
Male C57BL/6 mice (20–25 g) were subjected to hepatic ischemia/reperfusion by temporally clamping the hepatic artery and portal vein for 60 min, which typically produced ischemia in 70% of the liver. At the beginning of the reperfusion, 0.2 ml saline, P5 (10.0 mg/kg BW) was injected via the internal jugular vein. At 24 h after the onset of ischemia, animals were euthanized to harvest blood to measure serum levels of hepatic injury markers such as alanine aminotransferase (ALT) and aspartate aminotransferase (AST) using commercial kits.

Assay [4] has as its system Cx43 protein expression, NIH 3T3 fibroblasts. The assay can be described thus: Cx43 protein expression, Western blotting, NIH 3T3 cells. It counts as cell-based. To be noted: prolonged incubation, data not shown. As to the method: The cellular levels of Cx43 and phosphor-PKR were determined by Western blotting analysis using an affinity-purified rabbit anti-Cx43 or anti-phospho-PKR (Thr^451) IgGs as previously described[9],[25],[53]. The levels of HMGB1 in the culture medium were determined by Western blotting analysis as described previously. The level of β-actin was used as a reference of total cellular proteins. Briefly, an equal volume of culture medium (conditioned by identical macrophage cell numbers) was harvested, and protein content was concentrated by ultrafiltration (with a molecular weight cutoff of 10.0 kDa), and then normalized to the same volume with a sample buffer. Proteins in equal sample volume were resolved on sodium dodecyl sulfate (SDS)-polyacrylamide gels, and transferred to polyvinylidene difluoride (PVDF) membranes. After blocking with 5% nonfat milk, the membrane was incubated with respective antibodies (anti-Cx43, 1:1000; anti-phospho-PKR, 1:1000; anti-HMGB1, 1:1,000; anti-β-actin. 1:5,000) overnight. Subsequently, the membrane was incubated with the appropriate secondary antibody, and the immunoreactive bands were visualized by chemiluminescence techniques.

The subject of assay [5] is Cx43 gap junctions, NIH 3T3 fibroblasts. Nature of the assay: Cx43 gap junction formation, immunostaining. Type of assay: cell-based. As to conditions: P5 20 µM, overnight. As to the method: Primary peritoneal macrophages were isolated from Balb/c mice, stimulated with LPS or SAA for 6 h, and immunostained with an affinity-purified rabbit anti-Cx43 IgGs (1:1,000 dilution at 4 °C) as previously described. Non-immune NIH 3T3 cells were grown on glass coverslips to confluency to allow formation of gap junctional channels. The growth medium was changed to DMEM before an overnight incubation with P5 (20 µM). Cells were then fixed with 2% paraformaldehyde, incubated for 16 hr with a well-characterized affinity-purified rabbit anti-Cx43 IgGs as previously described. After extensive washing, cells were incubated with donkey anti-rabbit Alexa 488 (Invitrogen) for 1 hr at room temperature. The coverslips were subsequently mounted on glass slides using anti-fade medium and examined using an epi-fluorescence microscope.

For assay [6], the system named is HMGB1 release, RAW 264.7 cells. The assay can be described thus: HMGB1 release, Western blotting. It counts as cell-based, murine. As to conditions: LPS 0.5 µg/ml, 16 h, P < 0.05 versus +LPS.

The record followed here is PMC5760527, “Connexin 43 Hemichannel as a Novel Mediator of Sterile and Infectious Inflammatory Diseases” (Scientific Reports, 2018).

As to “ENVCYD [P5, cysteine-containing Cx43 EL1 mimetic hexamer peptide, P5 (ENVCYD)]”, the “effect on endotoxin-induced hemichannel activities (LY dye uptake)” value in assay [1] is “significantly inhibited the endotoxin-induced elevation of hemichannel activities”. Moreover, in assay [2], the “LPS-induced production of nitric oxide” value is reported as “did not affect the LPS-induced production of nitric oxide”. In assay [3], the “serum alanine aminotransferase (ALT)” value is “significant reduction of serum levels”, the “serum aspartate aminotransferase (AST)” value is “significant reduction of serum levels” and the “systemic release of LDH” value is reported as “significantly attenuated”. In assay [4], the Cx43 protein expression result was “did not alter Cx43 protein expression”. Further, the “GJ formation (Cx43 punctate immunostaining)” value in assay [5] is on record as “did not alter the punctate immunostaining profile of Cx43”. For the same substance, the “inhibition of LPS-induced HMGB1 release” value in assay [6] is “significantly inhibited by P5 in a dose-dependent fashion”.
